Source: US11236122B2, “Triterpene amine derivatives” (DFH THERAPEUTICS, priority 2018, dated 2022)
Structures can show the parent of a compound that is named as a salt.

Experiments:
WT pNL4-3 = assay: CA-SP1 accumulation assay, WT NL4-3; assay type: cell-based, HIV-1; details: HeLa or 293T cells; for % CA-SP1 Accumulation 10 nM NL4-3: 10 nM compound; for % CA-SP1 Accumulation 100 nM NL4-3: 100 nM compound
Procedure: (§1) Cell culture, plasmids and transfections. The MT-4 T-cell line was maintained in RPMI-1640 medium supplemented with 10% (vol/vol) fetal bovine serum (FBS), 2 mM glutamine, 100 U/mL penicillin and 100 μg/mL streptomycin at 37° C. in a humidified 5% CO2 atmosphere. HeLa and 293T cells were maintained in Dulbecco's modified Eagle's medium (DMEM) supplemented with 5% (vol/vol) FBS, 2 mM glutamine, 100 U/mL penicillin and 100 μg/mL streptomycin. Molecular clones used in this study were WT pNL4-3 and the derivative encoding a Val-to-Ala mutation at SP1 residue 7, referred to as SP1-V7A. The MT-4 T-cell line was transfected the DEAE/dextran procedure; HeLa and 293T cells were transfected with linear polyethylenimine (L-PEI) or Lipofectamine 2000 (Invitrogen) as recommended by the supplier.
(§2) CA-SP1 accumulation assay. For CA-SP1 accumulation assays, HeLa or 293T cells were transfected with WT pNL4-3 or the SP1-V7A derivative. At 24 h post-transfection, cells were starved in Met/Cys-free medium for 30 min and metabolically labeled with [^35S]Met/Cys-Pro-mix (Amersham) for 2-3 h. Maturation inhibitors were maintained in the cultures throughout the transfection and labeling period. Viruses were collected by ultracentrifugation at 99,000×g for 45-60 min. Virus pellets were resuspended in Triton X-100 lysis buffer [300 mM NaCl, 50 mM Tris-HCl (pH 7.5), 0.5% Triton X-100, 10 mM iodoacetamide, and protease inhibitor cocktail tablets (Roche)]. CA and CA-SP1 proteins were separated on 13.5-15% polyacrylamide gels by SDS-polyacrylamide gel electrophoresis, exposed to a phosphorimager plate (Fuji) and quantified by Quantity One software (Bio-Rad).

pNL4-3 SP1-V7A = assay: CA-SP1 accumulation assay, SP1-V7A derivative; assay type: cell-based, HIV-1; details: HeLa or 293T cells; for % CA-SP1 Accumulation 10 nM SP1 V7A: 10 nM compound; for % CA-SP1 Accumulation 100 nM SP1 V7A: 100 nM compound
Procedure: as §1, §2

C=C(C)[C@@H]1CC[C@]2(CCNCCN3CCN(c4ccccc4)CC3)CC[C@]3(C)[C@H](CC[C@@H]4[C@@]5(C)CC[C@H](OC(=O)CC(C)(C)C(=O)O)C(C)(C)[C@@H]5CC[C@]43C)[C@@H]12 [Compound 51p, (3β)-17-[2-[[2-(4-Phenylpiperazin-1-yl)ethyl]amino]ethyl]-28-norlup-20(29)-en-3-ol, 3-(1-Hydrogen 2,2-Dimethylbutanedioate)]
% CA-SP1 Accumulation 10 nM NL4-3 (WT pNL4-3): 60.0%
% CA-SP1 Accumulation 10 nM SP1 V7A (pNL4-3 SP1-V7A): 22.5%

C=C(C)[C@@H]1CC[C@]2(CCNCCCN3CCN(S(C)(=O)=O)CC3)CC[C@]3(C)[C@H](CC[C@@H]4[C@@]5(C)CC[C@H](OC(=O)CC(C)(C)CC(=O)O)C(C)(C)[C@@H]5CC[C@]43C)[C@@H]12 [Compound 51c, (3β)-17-[2-[[3-[4-(Methylsulfonyl)piperazin-1-yl]propyl]amino]ethyl]-28-norlup-20(29)-en-3-ol, 3-(Hydrogen 3,3-Dimethylpentanedioate)]
% CA-SP1 Accumulation 100 nM NL4-3 (WT pNL4-3): 72.9 (3) %
% CA-SP1 Accumulation 100 nM SP1 V7A (pNL4-3 SP1-V7A): 29.2 (3) %

C=C(C)[C@@H]1CC[C@]2(CCCNCCN3CCN(Cc4ccccc4)CC3)CC[C@]3(C)[C@H](CC[C@@H]4[C@@]5(C)CC[C@H](OC(=O)CC(C)(C)C(=O)O)C(C)(C)[C@@H]5CC[C@]43C)[C@@H]12 [Compound 51bb, (3β)-17-[3-[[2-[4-(Phenylmethyl)piperazin-1-yl]ethyl]amino]propyl]-28-norlup-20(29)-en-3-ol, 3-(1-Hydrogen 2,2-Dimethylbutanedioate) Sesquisulfate]
% CA-SP1 Accumulation 10 nM NL4-3 (WT pNL4-3): 5.8%
% CA-SP1 Accumulation 100 nM NL4-3 (WT pNL4-3): 8.4%
% CA-SP1 Accumulation 10 nM SP1 V7A (pNL4-3 SP1-V7A): 4.8%
% CA-SP1 Accumulation 100 nM SP1 V7A (pNL4-3 SP1-V7A): 3.7%

CN1CCN(CCCNCC[C@]23CC[C@@H](C4(C)CC4)[C@@H]2[C@H]2CC[C@@H]4[C@@]5(C)CC[C@H](OC(=O)CC(C)(C)C(=O)O)C(C)(C)[C@@H]5CC[C@@]4(C)[C@]2(C)CC3)CC1 [Compound 51i, (3β)-17-[2-[[3-(4-Methylpiperazin-1-yl)propyl]amino]ethyl]-20,29-methano-28-norlupan-3-ol, 3-(1-Hydrogen 2,2-Dimethylbutanedioate)]
% CA-SP1 Accumulation 100 nM NL4-3 (WT pNL4-3): 71.9%
% CA-SP1 Accumulation 100 nM SP1 V7A (pNL4-3 SP1-V7A): 22.0%

C=C(C)[C@@H]1CC[C@]2(CNCCN3CCS(=O)(=O)CC3)CC[C@]3(C)[C@H](CC[C@@H]4[C@@]5(C)CC[C@H](OC(=O)CC(C)(C)C(=O)O)C(C)(C)[C@@H]5CC[C@]43C)[C@@H]12 [Compound 51y, (3β)-28-[[2-[(1,1-Dioxothiomorpholin-4-yl)]ethyl]amino]lup-20(29)-en-3-ol, 3-(1-Hydrogen 2,2-Dimethylbutanedioate) Sulfate]
% CA-SP1 Accumulation 10 nM NL4-3 (WT pNL4-3): 56.4%
% CA-SP1 Accumulation 100 nM NL4-3 (WT pNL4-3): 69.4%
% CA-SP1 Accumulation 10 nM SP1 V7A (pNL4-3 SP1-V7A): 28.5%
% CA-SP1 Accumulation 100 nM SP1 V7A (pNL4-3 SP1-V7A): 28.1%

C=C(C)[C@@H]1CC[C@]2(CNCCN3CCN(S(C)(=O)=O)CC3)CC[C@]3(C)[C@H](CC[C@@H]4[C@@]5(C)CC[C@H](OC(=O)CC(C)(C)C(=O)O)C(C)(C)[C@@H]5CC[C@]43C)[C@@H]12 [Compound 51x, (3β)-28-[[2-[4-(Methylsulfonyl)piperazin-1-yl]ethyl]amino]lup-20(29)-en-3-ol, 3-(1-Hydrogen 2,2-Dimethylbutanedioate) Sulfate]
% CA-SP1 Accumulation 10 nM NL4-3 (WT pNL4-3): 56.6%
% CA-SP1 Accumulation 100 nM NL4-3 (WT pNL4-3): 74.3%
% CA-SP1 Accumulation 10 nM SP1 V7A (pNL4-3 SP1-V7A): 31.0%
% CA-SP1 Accumulation 100 nM SP1 V7A (pNL4-3 SP1-V7A): 26.9%

C=C(C)[C@@H]1CC[C@]2(CCNCCN3CCN(Cc4cccc5ccccc45)CC3)CC[C@]3(C)[C@H](CC[C@@H]4[C@@]5(C)CC[C@H](OC(=O)CC(C)(C)C(=O)O)C(C)(C)[C@@H]5CC[C@]43C)[C@@H]12 [Compound 51q, (3β)-17-[2-[[2-[4-(1-Naphthalenylmethyl)piperazin-1-yl]ethyl]amino]ethyl]-28-norlup-20(29)-en-3-ol, 3-(1-Hydrogen 2,2-Dimethylbutanedioate)]
% CA-SP1 Accumulation 10 nM NL4-3 (WT pNL4-3): 26.8%
% CA-SP1 Accumulation 10 nM SP1 V7A (pNL4-3 SP1-V7A): 11.6%

C=C(C)[C@@H]1CC[C@]2(CNCCN3CCN(Cc4ccccc4)CC3)CC[C@]3(C)[C@H](CC[C@@H]4[C@@]5(C)CC[C@H](OC(=O)CC(C)(C)C(=O)O)C(C)(C)[C@@H]5CC[C@]43C)[C@@H]12 [Compound 51w, (3β)-28-[[2-[4-(Phenylmethyl)piperazin-1-yl]ethyl]amino]lup-20(29)-en-3-ol, 3-(1-Hydrogen 2,2-Dimethylbutanedioate) Sesquisulfate]
% CA-SP1 Accumulation 10 nM NL4-3 (WT pNL4-3): 16.3%
% CA-SP1 Accumulation 100 nM NL4-3 (WT pNL4-3): 50.1%
% CA-SP1 Accumulation 10 nM SP1 V7A (pNL4-3 SP1-V7A): 9.6%
% CA-SP1 Accumulation 100 nM SP1 V7A (pNL4-3 SP1-V7A): 21.6%

C=C(C)[C@@H]1CC[C@]2(CCNCCCN3CCCC3)CC[C@]3(C)[C@H](CC[C@@H]4[C@@]5(C)CC[C@H](OC(=O)CC(C)(C)C(=O)O)C(C)(C)[C@@H]5CC[C@]43C)[C@@H]12 [Compound 51z, (3β)-17-[2-[[3-(1-Pyrrolidinyl)propyl]amino]ethyl]-28-norlup-20(29)-en-3-ol, 3-(1-Hydrogen 2,2-Dimethylbutanedioate) Sulfate]
% CA-SP1 Accumulation 10 nM NL4-3 (WT pNL4-3): 9.5%
% CA-SP1 Accumulation 100 nM NL4-3 (WT pNL4-3): 19.9%
% CA-SP1 Accumulation 10 nM SP1 V7A (pNL4-3 SP1-V7A): 7.5%
% CA-SP1 Accumulation 100 nM SP1 V7A (pNL4-3 SP1-V7A): 10.5%

C=C(C)[C@@H]1CC[C@]2(CCCNCCN3CCN(S(C)(=O)=O)CC3)CC[C@]3(C)[C@H](CC[C@@H]4[C@@]5(C)CC[C@H](OC(=O)CC(C)(C)C(=O)O)C(C)(C)[C@@H]5CC[C@]43C)[C@@H]12 [Compound 51cc, (3β)-17-[3-[[2-[4-(Methylsulfonyl)piperazin-1-yl]ethyl]amino]propyl]-28-norlup-20(29)-en-3-ol, 3-(1-Hydrogen 2,2-Dimethylbutanedioate) Sesquisulfate]
% CA-SP1 Accumulation 10 nM NL4-3 (WT pNL4-3): 26.0%
% CA-SP1 Accumulation 100 nM NL4-3 (WT pNL4-3): 58.4%
% CA-SP1 Accumulation 10 nM SP1 V7A (pNL4-3 SP1-V7A): 12.5%
% CA-SP1 Accumulation 100 nM SP1 V7A (pNL4-3 SP1-V7A): 19.3%
